The text below walks through data of patent publication US8076281B2, “Use of a ghrelin agonist to improve the catabolic effects of glucocorticoid treatment” (IPSEN Pharma, S.A.S., priority 2006, dated 2011).

Experiment [1] in a line: Effects of pharmacological treatments on growth parameters in young rats. The class given is in vivo, Sprague-Dawley rats. The note with it: FIG. 3; for somatic growth: young male rats, compared to SAL-treated rats. How it is done:
Thirty-two prepubertal male Sprague-Dawley rats approximately 21 days old and weighing between 45 and 55 grams, were obtained from Harlan, Italy (S. Pietro al Natisone, ITALY). During the study, the animals were maintained in accordance with the guidelines of the Italian Ministry of Health for the care and use of laboratory animals (Decreto legge 116/92). The animals were randomly divided into two treatment groups and kept in a controlled environment at a constant temperature of 21-23° C. with 12:12 light/dark exposure continuous period wherein the light exposure began at approximately 8:00 am and ended at approximately 8:00 pm. The animals were provided with water and food ad libitum consisting of an approximate 3200 calories/kg daily diet of standard pellet chow provided by Piccioni, Gessate-Milano, Italy (containing at least 19% protein, 3% fat and 56% carbohydrate).
Beginning on the 23rd day (i.e., the animals were 23 days old), 16 of the study animals were treated intraperitoneally (Ip) daily with 40 μg/kg of either saline or dexamethasone sodium phosphate (sold under the trademark Decadron® by Merck Pharmaceuticals, West Point, Pa.). […] At irregular intervals, the cumulative food intake for a 24-hour period of time was measured. Beginning on the 46th day (i.e., the animals were 46 days old), the length of the test and control animals from nose to anus was measured (hereinafter referred to as “the nose-anal length”). […]
Unless otherwise stated, the results reported in FIGS. 3-6 are expressed as the mean±SEM of eight replicate test subjects. Data was analyzed for statistical significance by one-way ANOVA which determines the variation (variance) within the groups and how that variation translates into variation (i.e. differences) between the groups, taking into account how many subjects there are in each group. […]

A short description of experiment [2]: Effects of pharmacological treatments on plasma hormones and glucose concentrations. Format: in vivo, Sprague-Dawley rats. The note with it: for plasma IGF-1 concentration (in words): compared with saline; for plasma corticosterone (in words) / plasma insulin (in words): compared with saline / vehicle. As to the method: (§1) Beginning on the 23rd day (i.e., the animals were 23 days old), 16 of the study animals were treated intraperitoneally (Ip) daily with 40 μg/kg of either saline or dexamethasone sodium phosphate (sold under the trademark Decadron® by Merck Pharmaceuticals, West Point, Pa.). Beginning on the 30th day (i.e., the animals were 30 days old), the subgroup of 16 studied animals was further divided into groups of 8 and treated subcutaneously three times daily (at approximately 9:00 am, 1:00 pm and 5:00 pm) with either 80 nmoles/kg of the preferred ghrelin analog [Aib^2, Glu^3(NH-hexyl)]hGhrelin(1-28)-NH2 (SEQ ID NO:2) (IPSEN, Milford, Mass.) dissolved in a sterile saline solution with 0.25% bovine serum albumin or vehicle (the saline-bovine serum albumin solution alone). This regimen continued for 24 days during which time the studied animals were weighed two times per week. At irregular intervals, the cumulative food intake for a 24-hour period of time was measured. Beginning on the 46th day (i.e., the animals were 46 days old), the length of the test and control animals from nose to anus was measured (hereinafter referred to as “the nose-anal length”). On the 47th day (i.e., the animals were 47 days old), all food was denied to the test subjects commencing at 8:00 am. Small samples of blood were taken via percutaneous puncture of the tail to assess blood glucose levels during the treatment period.
The test animals received two subcutaneous administrations of [Aib^2, Glu^3(NH-hexyl)]hGhrelin(1-28)-NH2 (SEQ ID NO:2) at approximately 9:00 am and 1:00 pm. The studied animals were sacrificed by rapid decapitation at approximately 2:00 pm, trunk blood collected for hormone level determinations, and the epididymal fat pads removed and weighed.
Samples of trunk blood were taken from the test subjects following decapitation. The blood samples were collected in tubes containing EDTA, separated by centrifugation, and stored at −20° C. Plasma insulin, IGF-1, and corticosterone levels were all measured using commercial RIA kits (Insulin and Corticosterone kits were both obtained from ICN-Biomedicals, Asse-Relegem, BELGIUM and the rIGF-1 test kit was obtained from Mediagnostic GMbH, Tubingen, GERMANY). Glucose concentration was determined using the Glucotrend® Soft Test System blood glucose meter (Roche Diagnostics, Barcelona, SPAIN).
Unless otherwise stated, the results reported in FIGS. 3-6 are expressed as the mean±SEM of eight replicate test subjects. Data was analyzed for statistical significance by one-way ANOVA which determines the variation (variance) within the groups and how that variation translates into variation (i.e. differences) between the groups, taking into account how many subjects there are in each group. […] The linear correlation analysis was performed either by Pearson's parametric test or by Spearman's nonparametric test. A P value below 0.05 was considered significant.

Experiment [3] is described as follows: 24-hour food intake and food efficiency. The conditions noted are these: for 24-h food intake: after 10 days of dexamethasone treatment, compared with saline-treated animals, FIG. 4A; for food efficiency: ratio body weight gain (g) / food intake (g), compared with saline treatment. Format: in vivo, Sprague-Dawley rats. As to the method: as §1
Food efficiency was calculated as the ratio between body weight gain (in grams) and food intake (in grams) measured over the same time interval.

The conditions of experiment [4]: in the rat; cited from earlier work.

As to `C[C@@H]1C[C@H]2[C@@H]3CCC4=CC(=O)C=C[C@]4(C)[C@@]3(F)[C@@H](O)C[C@]2(C)[C@@]1(O)C(=O)CO` [Dexamethasone, 9-fluoro-11β, 17, 21-trihydroxy-16a-methylpregna-1,4-diene-3,20-dione, reference compound], in experiment [1], the somatic growth result is “significantly decreased”. In experiment [2], the “plasma IGF-1 concentration (in words)” value is “significantly reduced”; the “plasma corticosterone (in words)” value is listed as “suppressed almost completely”; the “plasma insulin (in words)” value is “tended to increase plasma insulin concentration, but the effect did not reach statistical significance”. For the same compound, the 24-h food intake result in experiment [3] is “significant reduction”. Also, in experiment [3] (FIG. 4B), the food efficiency entry is given as “significantly reduced food efficiency”. Further, in experiment [3] (up to 10 days from the beginning of the treatment), the “cumulative 24-hour food intake” value was “did not significantly affect”.
With GHRP-6, the “glucocorticoid-mediated GH-inhibition” value in experiment [4] is reported as “completely counteract”.
Regarding “[Aib^2, Glu^3(NH-hexyl)]hGhrelin(1-28)-NH2 (GXEFLSPEHQRVQQRKESKKPPAKLQPR; Aib2, Glu3 NH-hexyl, C-terminal amide; Ghrelin analog)”, the “growth suppression induced by DEX” value in experiment [1] (concomitant treatment in DEX-treated rats) is reported as “reversed”. The somatic growth entry in experiment [1] is “significantly increased”. The compound also had a Glucose in experiment [2] (at sacrifice (day 47), mean ± SEM of eight animals) of 122 ± 3 mg/dL. In experiment [2], the “plasma IGF-1 concentration (in words)” value is on record as “higher IGF-1 levels”, the “plasma corticosterone (in words)” value is “clear-cut increase” and the “plasma insulin (in words)” value is recorded as “unchanged”. Also, the “suppression of the HPA axis (corticosterone) in dexamethasone-treated animals” value in experiment [2] (in dexamethasone-treated animals) is “not able to overcome”. The “IGF-1 suppression in dexamethasone-treated subjects” value in experiment [2] (in dexamethasone-treated subjects) is given as “partially reversed”. Besides, in experiment [3], the 24-h food intake result was “increased daily food intake”. For the same compound, the “decrease of food efficiency induced by dexamethasone” value in experiment [3] (in dexamethasone-treated rats, FIG. 4B) is listed as “able to reverse”. Moreover, the food efficiency entry in experiment [3] (FIG. 4B) is given as “increased food efficiency”.
